Read-outs that look alike come from different tables or passages of the source. A value given as a limit tells only on which side of the number the result lay.

For data set [1], the system named is IL-1β cytokine output from THP-1s. Description: THP-1 AlphaLISA IL-1β cytokine inhibition assay. It counts as cell-based. In short, it runs like this: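 IL-1β release by AlphaLISA, expressed as % inhibition against +/− LPS controls on each plate. Differentiation: PMA, 72 h. Sequence: 30 min compound pre-treatment, LPS 24 h, Nigericin 1 h before supernatant harvest, all at 37° C./5% CO2.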
Background: In Alpha technology, singlet oxygen from a donor bead excites a nearby acceptor bead.

In data set [2] the test system is IL-6 cytokine output from THP-1s. Description: THP-1 AlphaLISA IL-6 cytokine inhibition assay. It counts as cell-based. A digest of the protocol: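 THP-1 cells differentiated with PMA for 72 h, then pre-incubated with compound 30 min, stimulated with LPS 24 h, then Nigericin 1 h, all at 37° C. Supernatant IL-6 measured by AlphaLISA. Percentage inhibition normalized to +/− LPS plate controls.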

In data set [3] the test system is NRF2 (nuclear factor erythroid 2-related factor 2). Description: NRF2 +/-GSH activation assay (DiscoverX PathHunter NRF2 translocation kit, U2OS cells). Format: cell-based. In short, it runs like this: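 Activation is expressed as percent of plate DMF (high) versus no-DMF (low) controls, from luminescence after 6 h compound exposure at 37 °C of U2OS PathHunter cells. The +GSH condition used compound pre-incubated 30 min in 6 mM working GSH; −GSH cells received compound directly.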

Data set [4] can be described thus: Hepatocyte stability assay, mouse. As to conditions: mouse, hepatocytes; for hepatocyte CLint at 10 μM: Hepatocyte stability Clint; for half-life at 10 μM: Hepatocyte stability T½. It counts as in vitro ADME. In short, it runs like this: (§1)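 Metabolic stability was measured as depletion of 10 μM compound in thawed hepatocytes (0.5×10^6 cells/mL, 37° C, up to 60 min). Intrinsic clearance came from the slope of log-transformed percentage remaining.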

Data set [5] has as its system mouse cryopreserved hepatocytes. Nature of the data set: Hepatocyte stability assay, mouse. Format: in vitro ADME. A digest of the protocol:
as §1

Data set [6] is described as follows: Hepatocyte stability assay, human. It counts as in vitro ADME. As to conditions: human, hepatocytes; for hepatocyte CLint at 10 μM: Hepatocyte stability Clint; for half-life at 10 μM: Hepatocyte stability T½. In short, it runs like this: as §1
Data set [7] concerns human cryopreserved hepatocytes. Description: Hepatocyte stability assay, human. Format: in vitro ADME. A digest of the protocol: as §1
[8] abbreviates: Homo sapiens, THP-1, differentiated THP-1 cells, LPS then nigericin.
Where [9] appears, read: Homo sapiens, THP-1, differentiated THP-1 cells, data from repeated experiments.
[10] abbreviates: +GSH, normalised to DMF high control.
Where [11] appears, read: −GSH, normalised to DMF high control.
[12] abbreviates: +GSH, 30 minute compound-GSH pre-incubation, read-out: NRF2 activation +GSH EC50.
Where [13] appears, read: −GSH, U2OS PathHunter cells, 6 hours compound treatment, read-out: NRF2 activation −GSH EC50.
[14] abbreviates: differentiated THP-1 cells, LPS then nigericin.
The mark [15] stands for this setting: Mouse hepatocytes, compound 10 μM, 0.5×10^6 cells/mL, 60 minutes (a n=2, b n=3).
Where [16] appears, read: Human hepatocytes, compound 10 μM, 0.5×10^6 cells/mL, 60 minutes (a n=2, c n=4).

As a reminder, the IC50 is the point on the concentration scale where inhibition reaches its midpoint. As usually defined, the hepatocyte CLint is the rate of metabolic loss divided by the concentration. A word on the half-life: it is the time needed for the level to fall by half in the phase considered. With `C=C(Cc1nc(CCCCCCCC)no1)C(=O)O` [Example 1, 2-((3-octyl-1,2,4-oxadiazol-5-yl)methyl)acrylic acid], the IC50 in data set [1] (Homo sapiens, THP-1, Table 3, head to head comparison of exo vs endo double bond compounds) turned out to be 4.9 µM; in data set [1] (Homo sapiens, THP-1, Table 3, data from repeated experiment), 4.7 µM; in data set [1] (setting [8]), 4.9 µM; in data set [1] (setting [9]) it was 4.7 µM; in data set [2] (setting [8]) it was 3.7 µM; in data set [2] (setting [9]), 4 µM. For the same molecule, the “reduction of cytokine release versus comparators, in words” value in data set [1] (compared with 4-octyl itaconate and 2-(2-chlorobenzyl)acrylic acid) is “reduced cytokine release more effectively than 4-octyl itaconate and 2-(2-chlorobenzyl)acrylic acid”. The “NRF2 activation +GSH Emax” value in data set [3] (setting [10]) was determined as 187%. The “NRF2 activation, result in words” value in data set [3] (−GSH and/or +GSH) is “activated NRF2 more potently and with higher efficacy than 4-octyl itaconate and 2-(2-chlorobenzyl)acrylic acid”. Also, the “NRF2 activation −GSH Emax” value in data set [3] (setting [11]) was found to be 243%. In data set [3] (−GSH, normalised to DMF high control, Table 5 exo vs endo comparison), the “−GSH Emax” value came out at 243%. For the same molecule, the hepatocyte CLint at 10 μM amounted to 118 µL/min/1e6 cells in data set [4] and 115 µL/min/1e6 cells in data set [6]. Further, the half-life at 10 μM in data set [4] and in data set [6] was 12 min in each case. In data set [5] (mouse, hepatocytes), the “stability in mouse cryopreserved hepatocytes, in words” value is recorded as “improved stability”. For the same molecule, the “stability in human cryopreserved hepatocytes, in words” value in data set [7] (human, hepatocytes) is “improved stability”.
For orientation: EC50 means the concentration needed to bring the measured effect to its halfway point. Regarding `C=C(Cc1nc(C(C)CCCCCC(F)(F)F)no1)C(=O)O` (stereo not drawn) [Example 54, 2-((3-(8,8,8-trifluorooctan-2-yl)-1,2,4-oxadiazol-5-yl)methyl)acrylic acid], the IC50 is more than 100 µM in data set [1] (setting [8]) and 19.1 µM in data set [2] (setting [8]). Besides, the “IL-1β lowering, result in words” value in data set [1] (THP-1 IL-1β assay) was “not effective”. Also, the EC50 was 42.4 µM in data set [3] (setting [12]) and 44.6 µM in data set [3] (setting [13]). Moreover, in data set [3] (setting [10]), the “NRF2 activation +GSH Emax” value came to 50%. The “NRF2 activation −GSH Emax” value in data set [3] (setting [11]) was 115%. Besides, the hepatocyte CLint at 10 μM in data set [4] amounted to 13 µL/min/1e6 cells; in data set [6] it was 5 µL/min/1e6 cells. Moreover, the half-life at 10 μM in data set [4] was found to be 102 min; in data set [6], 268 min.
With `C=C(Cc1cc(CCCCCCCC)on1)C(=O)O` [Example 102, 2-((5-octylisoxazol-3-yl)methyl)acrylic acid], the IC50 was 7.4 µM in data set [1] (setting [8]) and 5.2 µM in data set [2] (Homo sapiens, differentiated THP-1 cells, LPS then nigericin). Moreover, the 50% effective concentration (EC50) in data set [3] (setting [12]) came out at 9.5 µM; in data set [3] (setting [13]) it was 7.2 µM. Also, the “NRF2 activation +GSH Emax” value in data set [3] (setting [10]) turned out to be 230%. Also, the “NRF2 activation −GSH Emax” value in data set [3] (setting [11]) stood at 342%. The hepatocyte CLint at 10 μM in data set [4] and in data set [6] was more than 460 µL/min/1e6 cells in each case. Besides, the half-life at 10 μM in data set [4] and in data set [6] was less than 3 min in each case.
On to `C=C(Cc1noc(C(F)(F)CCCCCCC)n1)C(=O)O` [Example 83, 2-((5-(1,1-difluorooctyl)-1,2,4-oxadiazol-3-yl)methyl)acrylic acid], for which the IC50 in data set [1] (setting [8]) turned out to be 3.1 µM; in data set [2] (setting [8]), 3.4 µM. The EC50 in data set [3] (setting [12]) came to 3.8 µM; in data set [3] (setting [13]), 3 µM. In addition, in data set [3] (setting [10]), the “NRF2 activation +GSH Emax” value was 161%. Further, in data set [3] (setting [11]), the “NRF2 activation −GSH Emax” value stood at 185%. For the same molecule, the values for the hepatocyte CLint at 10 μM in data set [4] and in data set [6] were more than 460 µL/min/1e6 cells and 263 µL/min/1e6 cells, respectively. In addition, the half-life at 10 μM was less than 3 min in data set [4] and 5 min in data set [6].
Consider `C=C(Cc1nc(C2(c3ccc(C(F)(F)F)cc3)CC2)co1)C(=O)O` [Example 103, 2-((4-(1-(4-(trifluoromethyl)phenyl)cyclopropyl)oxazol-2-yl)methyl)acrylic acid], for which the IC50 in data set [1] (setting [8]) was found to be 14.4 µM; in data set [2] (setting [8]) it was 19.7 µM. Moreover, the results for the EC50 in data set [3] (setting [12]) and in data set [3] (setting [13]) were 42.7 µM and 40.5 µM, respectively. Moreover, the “NRF2 activation +GSH Emax” value in data set [3] (setting [10]) is listed as 190%. For the same molecule, the “NRF2 activation −GSH Emax” value in data set [3] (setting [11]) is given as 306%. The figures for the hepatocyte CLint at 10 μM in data set [4] and in data set [6] were 94 µL/min/1e6 cells and 43 µL/min/1e6 cells, respectively. Besides, the half-life at 10 μM in data set [4] turned out to be 16 min; in data set [6], 31 min.
For the molecule `C=C(Cc1nc(C(F)(F)c2ccc(Br)cc2)no1)C(=O)O` [Example 90, 2-((3-((4-bromophenyl)difluoromethyl)-1,2,4-oxadiazol-5-yl)methyl)acrylic acid], the IC50 is 3.4 µM in data set [1] (setting [8]) and 15.7 µM in data set [2] (setting [8]). Besides, the values for the EC50 in data set [3] (setting [12]) and in data set [3] (setting [13]) were 44 µM and 45.3 µM, respectively. Further, in data set [3] (setting [10]), the “NRF2 activation +GSH Emax” value came out at 130%. For the same molecule, in data set [3] (setting [11]), the “NRF2 activation −GSH Emax” value came to 172%. In addition, the hepatocyte CLint at 10 μM in data set [4] was 34 µL/min/1e6 cells; in data set [6] it was 7 µL/min/1e6 cells. Also, the figures for the half-life at 10 μM in data set [4] and in data set [6] were 56 min and 206 min, respectively.
For the molecule `C=C(CC(=O)OCCCCCCCC)C(=O)O` [4-octyl itaconate, 4-Octyl itaconate, reference compound], the IC50 in data set [1] (setting [14]) came to 37.8 µM; in data set [2] (setting [14]) it was 19.1 µM. The “NRF2 activation +GSH Emax” value in data set [3] (setting [10]) was found to be 148%. The “NRF2 activation −GSH Emax” value in data set [3] (setting [11]) turned out to be 165%. The “Hepatocyte stability Clint” value in data set [5] (setting [15]) amounted to 351 μL min^−1 10^−6 cells; in data set [7] (setting [16]), 401 μL min^−1 10^−6 cells. The “Hepatocyte stability T½” value in data set [5] (setting [15]) and in data set [7] (setting [16]) was 4 min in each case.
Consider `C=C(Cc1nc(Cc2ccc(C(F)(F)CCCC)cc2)no1)C(=O)O` [Example 93, 2-((3-(4-(1,1-difluoropentyl)benzyl)-1,2,4-oxadiazol-5-yl)methyl)acrylic acid], for which the figures for the IC50 in data set [1] (setting [8]) and in data set [2] (setting [8]) were 16.1 µM and 8.7 µM, respectively. In addition, the EC50 in data set [3] (setting [12]) came out at 14.3 µM; in data set [3] (setting [13]), 12.6 µM. The “NRF2 activation +GSH Emax” value in data set [3] (setting [10]) worked out at 190%. For the same molecule, the “NRF2 activation −GSH Emax” value in data set [3] (setting [11]) came to 224%. Besides, the hepatocyte CLint at 10 μM in data set [4] is more than 460 µL/min/1e6 cells; in data set [6], 40 µL/min/1e6 cells. In addition, the half-life at 10 μM in data set [4] was less than 3 min; in data set [6], 38 min.
With `C=C(Cc1nc(Cc2ccc(CCCC)cc2)no1)C(=O)O` [Example 20, 2-((3-(4-butylbenzyl)-1,2,4-oxadiazol-5-yl)methyl)acrylic acid], the IC50 in data set [1] (setting [8]) was determined as 14.7 µM; in data set [2] (setting [8]) it was 2.7 µM. Besides, the results for the EC50 in data set [3] (setting [12]) and in data set [3] (setting [13]) were 3 µM and 2.9 µM, respectively. In data set [3] (setting [10]), the “NRF2 activation +GSH Emax” value amounted to 146%. In addition, the “NRF2 activation −GSH Emax” value in data set [3] (setting [11]) is 206%. Further, the hepatocyte CLint at 10 μM came out at 427 µL/min/1e6 cells in data set [4] and 70 µL/min/1e6 cells in data set [6]. Moreover, the half-life at 10 μM in data set [4] came to 4 min; in data set [6], 24 min.

Source of the values: patent US12617762B2, “Carboxy derivatives with antiinflamatory properties” (Sitryx Therapeutics Limited, priority 2019, dated 2026).
